Experimental data taken from PubChem BioAssay AID248 (DTP/NCI, 2004).
Values joined by “and” are separate entries in the source; they are usually repeats but may differ in a detail not shown here. Equal values may be shown once. Inconclusive results and toxic doses are left out. Cut-off read from the data, not from the text of the source: active = T/C of 150% or more; inactive = T/C below 125%.

System: L1210 leukemia ip in BDF1 mice, survival T/C
Test: NCI In Vivo Anticancer Drug Screen. Data for tumor model L1210 Leukemia (intraperitoneal) in B6D2F1 (BDF1) mice
Conditions: endpoint: mean survival time, higher = longer survival
Procedure, shortened: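 Tumor cells were implanted, animals were treated, and survival was followed. The result divides the treated measurement by the vehicle-control measurement.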

[1] = dose: 100.0 mg/kg/injection, schedule: Q01DX009 (ip), vehicle: saline with Tween-80
[2] = dose: 200.0 mg/kg/injection, schedule: Q01DX009 (ip), vehicle: saline with Tween-80
[3] = dose: 400.0 mg/kg/injection, schedule: Q01DX009 (ip), vehicle: saline with Tween-80
[4] = dose: 100.0 mg/kg/injection, schedule: Q01DX001 (ip), vehicle: carboxymethylcellulose (CMC)
[5] = dose: 200.0 mg/kg/injection, schedule: Q01DX001 (ip), vehicle: carboxymethylcellulose (CMC)
[6] = dose: 400.0 mg/kg/injection, schedule: Q01DX001 (ip), vehicle: carboxymethylcellulose (CMC)
[7] = dose: 200.0 mg/kg/injection, schedule: Q01DX009 (ip), vehicle: saline
[8] = dose: 25.0 mg/kg/injection, schedule: Q01DX009 (ip), vehicle: saline
[9] = dose: 25.0 mg/kg/injection, schedule: Q04DX003 (ip), vehicle: saline
[10] = dose: 50.0 mg/kg/injection, schedule: Q01DX009 (ip), vehicle: saline
[11] = dose: 50.0 mg/kg/injection, schedule: Q04DX003 (ip), vehicle: saline
[12] = dose: 100.0 mg/kg/injection, schedule: Q01DX001 (ip), vehicle: other
[13] = dose: 200.0 mg/kg/injection, schedule: Q01DX001 (ip), vehicle: other
[14] = dose: 400.0 mg/kg/injection, schedule: Q01DX001 (ip), vehicle: other
[15] = dose: 100.0 mg/kg/injection, schedule: Q04DX003 (ip), vehicle: saline with Tween-80
[16] = dose: 400.0 mg/kg/injection, schedule: Q04DX003 (ip), vehicle: saline with Tween-80
[17] = dose: 100.0 mg/kg/injection, schedule: Q01DX009 (ip), vehicle: saline

Measured: T/C

COC1=NS(=O)(=O)C2(O1)c1ccccc1-c1ccccc12
inactive: dose: 100.0 mg/kg/injection, schedule: Q04DX002 (ip), vehicle: Klucel (hydroxypropylcellulose) (HPC) 96 % of control | dose: 200.0 mg/kg/injection, schedule: Q04DX002 (ip), vehicle: Klucel (hydroxypropylcellulose) (HPC) 96 % of control | dose: 400.0 mg/kg/injection, schedule: Q04DX002 (ip), vehicle: Klucel (hydroxypropylcellulose) (HPC) 116 % of control

O=C1OC(=O)N2N=CC=CC12 (stereo unspecified)
inactive: [1] 102 % of control | [2] 100 % of control | [3] 96 % of control

CCCC(NC(=O)OCC)NC(=O)OCC
inactive: dose: 50.0 mg/kg/injection, schedule: Q01DX001 (ip), vehicle: carboxymethylcellulose (CMC) 95 % of control | [4] 92 % of control | [5] 90 % of control | [6] 92 % of control

O=c1[nH]nc(S(=O)(=O)N2CCOCC2)c(=O)[nH]1
inactive: [4] 98 % of control | [5] 96 % of control | [6] 96 % of control

Cc1ccc(O)c(C)n1
inactive: dose: 66.0 mg/kg/injection, schedule: Q01DX009 (ip), vehicle: saline 98 % of control | dose: 150.0 mg/kg/injection, schedule: Q01DX009 (ip), vehicle: saline 97 % of control | [7] 93 % of control | dose: 400.0 mg/kg/injection, schedule: Q01DX009 (ip), vehicle: saline 102 % of control

Nc1ncnc2c1ncn2C1OCC(O)C(O)C1O (stereo unspecified)
inactive: dose: 100.0 mg/kg/injection, schedule: Q01DX001 (ip), vehicle: saline 106 % of control | dose: 200.0 mg/kg/injection, schedule: Q01DX001 (ip), vehicle: saline 98 % of control | dose: 400.0 mg/kg/injection, schedule: Q01DX001 (ip), vehicle: saline 91 % of control

CN(C)CCOC(c1ccccc1)c1ccccc1
inactive: dose: 3.12 mg/kg/injection, schedule: Q01DX009 (ip), vehicle: saline 92 % of control and 96 % of control | dose: 6.25 mg/kg/injection, schedule: Q01DX009 (ip), vehicle: saline 102 % of control and 107 % of control | dose: 12.5 mg/kg/injection, schedule: Q01DX009 (ip), vehicle: saline 100 % of control and 114 % of control | [8] 100 % of control and 102 % of control | [9] 97 % of control | [10] 117 % of control and 91 % of control | [11] 111 % of control

O=C(c1ccccc1)C1CCC(Cl)CC1 (stereo unspecified)
inactive: [12] 96 % of control | [13] 101 % of control | [14] 102 % of control

CC(=O)OC1CC2(Cl)CC1(Cl)C(Cl)=C2Cl (stereo unspecified)
inactive: dose: 50.0 mg/kg/injection, schedule: Q04DX003 (ip), vehicle: saline with Tween-80 105 % of control | [12] 109 % of control | [15] 106 % of control | [13] 100 % of control | [14] 109 % of control | [16] 103 % of control

COc1ccccc1C1CC(C(C)(C)C)CCC1OS(=O)(=O)c1ccc(C)cc1 (stereo unspecified)
inactive: [10] 90 % of control | [17] 92 % of control | dose: 100.0 mg/kg/injection, schedule: Q04DX003 (ip), vehicle: acetone 102 % of control | [7] 95 % of control | dose: 200.0 mg/kg/injection, schedule: Q04DX003 (ip), vehicle: acetone 96 % of control | dose: 400.0 mg/kg/injection, schedule: Q04DX003 (ip), vehicle: acetone 94 % of control

CCOc1ccc(NC(=O)Oc2ccc(-c3ccccc3)cc2)cc1
inactive: dose: 100.0 mg/kg/injection, schedule: Q01DX001 (ip), vehicle: saline with Tween-80 93 % of control | [1] 100 % of control and 90 % of control | dose: 100.0 mg/kg/injection, schedule: Q04DX002 (ip), vehicle: saline with Tween-80 104 % of control and 106 % of control | dose: 200.0 mg/kg/injection, schedule: Q01DX001 (ip), vehicle: saline with Tween-80 91 % of control | [2] 87 % of control and 92 % of control | dose: 200.0 mg/kg/injection, schedule: Q04DX002 (ip), vehicle: saline with Tween-80 100 % of control and 101 % of control | dose: 400.0 mg/kg/injection, schedule: Q01DX001 (ip), vehicle: saline with Tween-80 89 % of control | [3] 97 % of control and 87 % of control | dose: 400.0 mg/kg/injection, schedule: Q04DX002 (ip), vehicle: saline with Tween-80 92 % of control

NNC(=O)c1ccc(Cl)cc1Nc1ccc(F)cc1
inactive: [9] 94 % of control | [11] 100 % of control | dose: 100.0 mg/kg/injection, schedule: Q01DX001 (ip), vehicle: saline sonified 111 % of control

CS(=O)(=O)Nc1cc(C(O)C2CCCCN2)ccc1O (stereo unspecified)
inactive: [8] 103 % of control | [10] 97 % of control | [17] 95 % of control | dose: 100.0 mg/kg/injection, schedule: Q04DX003 (ip), vehicle: saline 104 % of control | dose: 200.0 mg/kg/injection, schedule: Q04DX003 (ip), vehicle: saline 104 % of control

CC(=O)C(C[CH2][Hg][Cl])C(C)=O
inactive: dose: 9.37 mg/kg/injection, schedule: Q01DX001 (ip), vehicle: other 96 % of control | dose: 18.75 mg/kg/injection, schedule: Q01DX001 (ip), vehicle: other 97 % of control | dose: 37.5 mg/kg/injection, schedule: Q01DX001 (ip), vehicle: other 100 % of control

NNC(=O)c1ccc(O)cc1
inactive: [15] 95 % of control | dose: 200.0 mg/kg/injection, schedule: Q04DX003 (ip), vehicle: saline with Tween-80 101 % of control | [16] 97 % of control

CC1NC(=O)NC1CCCCCC(=O)O (stereo unspecified)
inactive: dose: 50.0 mg/kg/injection, schedule: Q01DX001 (ip), vehicle: Klucel (hydroxypropylcellulose) (HPC) 98 % of control | dose: 100.0 mg/kg/injection, schedule: Q01DX001 (ip), vehicle: Klucel (hydroxypropylcellulose) (HPC) 98 % of control | [4] 97 % of control | dose: 200.0 mg/kg/injection, schedule: Q01DX001 (ip), vehicle: Klucel (hydroxypropylcellulose) (HPC) 96 % of control | [5] 98 % of control | [6] 97 % of control
